Measured values: US20260216057A1, “PHARMACEUTICAL COMPOSITIONS FOR HERPES VIRUS” (priority 2022, published 2026)
Read-outs that look alike come from different tables or passages of the source.

Legend:
[1] = Example 16: Compound 1 solution SC PK study in dog; format: in vivo, male non-naïve Beagle dogs; conditions: 10 mg/kg
Procedure: The LC-MS methodology and conditions used to analyse the helicase-primase inhibitor Compound 1 in dog plasma samples from the dog PK study described in Example 16 are given in Table 9.
(§1) A solution of Compound 1 in 90% NMP and 10% Solutol HS15 at a concentration of 50 mg/mL was prepared as follows: • 1) An appropriate amount of crystalline Compound 1 (Form C) was weighed and added to NMP. • 2) After Compound 1 had dissolved, Solutol HS15 was added to the solution and mixed. • 3) The final dosing formulation was a clear solution.
as §1, with “100” for “50”
Male non-naïve beagles were used for the dog PK study. The animals had free access to food and water. The prepared 50 mg/mL solution was administered via subcutaneous injection to each animal group (n=3) with a dosing volume of 0.2 mL/kg to achieve a 10 mg/kg dose. […]
At each time point, approximately 0.5 mL of whole blood was collected into K2EDTA tubes. […] Plasma samples were stored at approximately −70° C. until analyzed by LC-MS.

HSV-2 G strain = assay: HSV-2 antiviral assay, cytopathic effect (CPE) inhibition in vero cells; format: cell-based
Procedure: (§2) Cytopathic Effect (CPE) Inhibition Assay
(§3) Cell culture—vero cells were cultured in Dulbecco's Modified Eagle Medium (DMEM) supplemented with 10% fetal bovine serum and 100 units/mL penicillin and streptomycin. The cells were passaged 2-3 times per week to maintain sub-confluent densities.
(§4) HSV-2 antiviral assay—vero cells were seeded into 96-well plates at a density of 1.0×10^4 cells per well and allowed to attach overnight. Following attachment, the media was replaced with 50 μL of infection medium (DMEM supplemented with 2% fetal bovine serum and 100 units/mL penicillin and streptomycin). A Tecan D300e digital dispenser was then used to add compounds to the culture using an 8-point 3-fold serial dilution format. The DMSO concentration was normalized to 0.5% for all treatments. Following compound addition, 50 μL of infection medium containing 160 TCID50 HSV-2 G strain was added to the cells and incubated at 37° C. for 5 days. After the incubation, 10 μL/well of WST-8 chromogenic reagent was added and the plates incubated at 37° C. for 3 hours. Following the incubation, cell viability was quantified by measuring the absorbance at 460 nm and 620 nm using a Tecan Infinite M1000 Pro plate reader.
(§5) Vero cells were cultured in Dulbecco's Modified Eagle Medium (DMEM) supplemented with 10% foetal bovine serum and 100 units/mL penicillin and streptomycin. The cells were passaged 2-3 times per week to maintain sub-confluent densities.
as §4, with “Vero” for “HSV-2 antiviral assay—vero”, “foetal” for “fetal”

HSV-1 = HSV-1 antiviral assay, cytopathic effect (CPE) inhibition in vero cells; format: cell-based; conditions: 4 days, read-out: in vitro EC50 against HSV-1
Procedure: as §2, §3
HSV-1 antiviral assay—vero cells were seeded into 96-well plates at a density of 2.5×10^3 cells per well and allowed to attach overnight. Following attachment, the media was replaced with 50 μL of infection medium (DMEM supplemented with 2% fetal bovine serum and 100 units/mL penicillin and streptomycin). A Tecan D300e digital dispenser was then used to add compounds to the culture using an 8-point 3-fold serial dilution format. The DMSO concentration was normalized to 0.5% for all treatments. Following compound addition, 50 μL of infection medium containing 80 TCID50 HSV-1 was added to the cells and incubated at 37° C. for 4 days. After the incubation, the plates were equilibrated to room temperature, the media was removed, and 60 μL of a 1:1 dilution of Cell titer glow and phosphate buffered saline was added to the cells. Following a 5-minute incubation, cell viability was quantified by measuring luminance using a Tecan Infinite M1000 Pro plate reader.
as §5
Vero cells were seeded into 96-well plates at a density of 2.5×10^3 cells per well and allowed to attach overnight. Following attachment, the media was replaced with 50 μL of infection medium (DMEM supplemented with 2% foetal bovine serum and 100 units/mL penicillin and streptomycin). A Tecan D300e digital dispenser was then used to add compounds to the culture using an 8-point 3-fold serial dilution format. The DMSO concentration was normalized to 0.5% for all treatments. […] Following a 5-minute incubation, cell viability was quantified by measuring luminance using a Tecan Infinite M1000 Pro plate reader.

[2] = Example 13: Compound 1 IV PK study in dog; format: in vivo, male non-naïve Beagle dogs; conditions: male, beagle, plasma, 0.15 mg/kg, read-out: Dog t1/2 (converted)
Procedure: The LC-MS methodology and conditions used to analyse Compound 1 in plasma samples from the intra-venous injection PK studies (Example 13) are described in Tables 5 to 7. A 0.15 mg/mL solution of Compound 1 in 10% DMSO, 10% Solutol HS15 and 80% Saline was prepared as follows: • 1) A stock solution of Compound 1 in DMSO was prepared. • 2) An equal volume of the Compound 1 stock solution and Solutol HS15 were combined and mixed. • 3) The above solution was diluted with normal saline to reach the target concentration. The final formulation was a clear solution. Male non-naïve beagles were used for the dog PK study. The animals had free access to food and water. […] At each time point, approximately 0.5 mL of whole blood was collected into K2EDTA tubes. Blood samples were put on ice and centrifuged at 2000 g for 5 min to obtain plasma samples within 15 minutes. Plasma samples were stored at approximately −70° C. until analyzed by LC-MS.

[3] = Human alphaherpesvirus 2, Vero, 120 h, CPE assay, vero cells, 5 days, read-out: in vitro EC50 against HSV-2
[4] = Human alphaherpesvirus 1, Vero, 96 h

| prolonged exposure for (length of the study) ([1]; solutions 50 mg/mL (0.2 mL/kg) and 100 mg/mL (0.1 mL/kg), both formulations) | EC50 (HSV-2 G strain; CPE assay, vero cells, 5 days, read-out: in vitro EC50 against HSV-2) | EC50 (HSV-2 G strain; [3]) | EC50 (HSV-2 G strain; Human alphaherpesvirus 2, Vero, Example 9, n=35, read-out: EC50 in the HSV-2 antiviral assay) | EC50 (HSV-1) | EC50 (HSV-1; [4]) | half-life [2] | SMILES | adverse reactions at the injection sites ([1]; both solution formulations) |
| --- | --- | --- | --- | --- | --- | --- | --- | --- |
| at least 60 days | 13 nM | ~11 nM | 11 nM | 15 nM | ~19 nM | 34.9 h | Cc1nc(N2CCCN(c3ccc(-c4cc(F)ccc4F)cc3)C2=O)sc1S(N)(=O)=O [Compound 1, 2-(3-(2′,5′-difluoro-[1,1′-biphenyl]-4-yl)-2-oxotetrahydropyrimidin-1(2H)-yl)-4-methylthiazole-5-sulfonamide] | no adverse reactions were observed |
|  |  | 55 nM |  |  | 47 nM |  | Cc1nc(N(C)C(=O)Cc2ccc(-c3ccccn3)cc2)sc1S(N)(=O)=O [pritelivir, N-methyl-N-(4-methyl-5-sulfamoyl-1,3-thiazol-2-yl)-2-[4-(pyridin-2-yl)phenyl]acetamide] |  |
